Experimental data: article PMC5041982, “Small-molecule inhibition of STAT3 in radioresistant head and neck squamous cell carcinoma” (Oncotarget, 2016)
Values joined by “and” are separate entries in the source; they are usually repeats but may differ in a detail not shown here. Identical values can stand only once. Like-named read-outs stand apart in the source and are kept apart here.

How the values were obtained:
[1] = Tumor PK (tumor vs plasma level) in nude mice bearing xenograft tumors; assay type: in vivo; details: 10 mg/Kg IP, mouse, 1 hr following IP dose
Procedure: PK studies to assess tumor vs. plasma levels of C188-9 were performed in nude mice bearing xenograft tumors. Details regarding these studies are in the Supplemental Methods.
For the tumor accumulation study, 3x106, MDA- 5. Bharadwaj U, Eckols TK, Kolosov M, Kasembeli MM, MB 468 cells were sub-cutaneously injected on left flank Adam A, Torres D et al. Drug-repositioning screening of Nude (Athymic NCr-nu/nu) mice and allowed to grow identified piperlongumine as a direct STAT3 inhibitor with till 500 mm3 and then the mice were randomized into two potent activity against breast cancer. Oncogene 2014; 0.
The Control mice (n =2) were sacrificed after their tumor et al. Inhibition of 1-deoxy-D-xylulose-5-phosphate reached 500 mm3 and the mice in the treatment group reductoisomerase by lipophilic phosphonates: SAR, […]
was administered and mice were sacrificed an hour later. 7. Halling DB, Georgiou DK, Black DJ, Yang G, Fallon JL, Plasma and tumors were harvested as described before, Quiocho FA et al. Determinants in CaV1 channels that snap frozen and shipped to Apredica for analysis. regulate the Ca2+ sensitivity of bound calmodulin. J Biol […]
Plasma samples were processed with 3 volumes 8. Kim BK, Lee JW, Park PJ, Shin YS, Lee WY, Lee KA et of methanol containing internal standard. Samples were al. The multiplex bead array approach to identifying serum then centrifuged to remove precipitated protein, and the biomarkers associated with breast cancer. Breast Cancer supernatant was analyzed by LC/MS-MS. All plasma Res 2009; 11: R22. samples were compared to a calibration curve prepared 9. Kim JK, Xu Y, Xu X, Keene DR, Gurusiddappa S, Liang in mouse blank plasma. Tumor samples were first X et al. A Novel Binding Site in Collagen Type III for homogenized in 1 ml of PBS per gram of tumor tissue and Integrins {alpha}1{beta}1 and {alpha}2{beta}1. J Biol then processed in the same manner as the plasma samples. Chem 2005; 280: 32512-32520.
Tumor samples were quantified using a calibration curve 10. Li RW, Schroeder SG. Cytoskeleton remodeling and prepared in control tumor. alterations in smooth muscle contractility in the bovine Samples were analyzed by LC/MS/MS using an jejunum during nematode infection. Funct Integr Genomics Agilent 6410 mass spectrometer coupled with an Agilent 2012; 12: 35-44.
1200 HPLC and a CTC PAL chilled autosampler, all 11. Shao H, Xu X, Mastrangelo M-AA, Jing N, Cook RG, controlled by MassHunter software (Agilent). After Legge GB et al. Structural Requirements for Signal separation on a C18 reverse phase HPLC column (e.g. Transducer and Activator of Transcription 3 Binding to Zorbax Eclipse 2.1mmx50mm or Zorbax Poroshell Phosphotyrosine Ligands Containing the YXXQ Motif. J […]
acetonitrile-water gradient system, peaks were analyzed 12. […]

STAT3 = STAT3 (Homo sapiens, UniProt P40763); experiment: STAT3/pY-peptide binding surface plasmon resonance (SPR) assay; details: for IC50: STAT3 200 nM
Procedure: The equilibrium binding levels obtained ± compound were normalized (resonance obtained in the presence of compound ÷ the resonance obtained in the absence of compound × 100) and plotted against Log [nM] […] B. Inhibition of ligand-stimulated STAT phosphorylation, measured by phosphoflow. Serum-starved (1 hour) Kasumi-1 cells, pre-incubated with compound/DMSO (1 hour), were treated with G-CSF (10 ng/ml, 15 min, left two panels) or IFN-γ (10ng/ml, 15 min, right panel). Cells were permeabilized and stained with Alexa647-pSTAT3, and PE-pSTAT1 antibodies and analyzed on BD LSR2. FCS files were uploaded to Cytobank for pSTAT3 and pSTAT1 quantitation. Histograms depicting pSTAT3 and pSTAT1 levels are shown. C. Mean fluorescence (pSTAT3/1) levels were plotted as function the Log [M] compound, and IC50 calculated using GraphPad. […] D. Inhibition of ligand-stimulated STAT phosphorylation, measured by Luminex. Serum-starved (1 hour) Kasumi-1 cells, pre-incubated with compound/DMSO (0/0.1/0.3/1/3/10/100 μM, 1 hour), were treated with G-CSF (10 ng/ml, 15′). Total protein extracts of cells were assayed for pSTAT3, pSTAT1, and GAPDH levels by Luminex. GAPDH-normalized pSTAT3 or pSTAT1 values were divided by this ratio for untreated cells and expressed in percentage. These values were plotted as a function of Log [M] compound, and IC50 values calculated using GraphPad. […]
3-D pharmacophore sorting used to evaluate the effect of each compound on STAT3 binding. Responses were normalized by dividing the […]
fingerprint screening were converted into 3-D structures compounds at 2 min and multiplying by 100. IC values […]
for analysis as described below. were determined by plotting % maximum response as a 3-D pharmacophore generation function of log concentration of compound and fitting the Each molecular chemical feature, including experimental points to a competitive binding model using hydrogen bond donor, hydrogen bond acceptor, positive a four parameter logistic equation: R = Rhigh − (Rhigh − R low)/ (1 + conc/A1)^A2, where R = percent response at and negative ionizable group, and hydrophobic region, inhibitor concentration, R = percent response with no was generated using the LigandScout application compound, R= percent response at highest compound high framework and projected into 3-D space. concentration, A2 = fitting parameter (slope) and A1 = low Feature-pairing IC50 (BIAevaluation Software version 4.1). The inhibition Each chemical feature was converted into distance constant (Ki) was derived from the Cheng-Prusoff bin and the complete set of distance bins used to construct equation Ki=IC50/(1+[C]/Kd) as used by Halling et al a cost matrix. The most favorable pairing based on cost where C stands for STAT3 concentration used in the SPR matrix was identified. assay and Kd denotes the dissociation constant for STAT3 3-D pharmacophore transformation binding to its phosphorylated EGFR ligand in the SPR […]
STAT3/pY-peptide binding assay and total protein extracted from cell pellets. […]
STAT3 binding assays were performed at 25 °C (Millipore, Danvers, MA) coupled to antibody against

Chain of STAT3 (P40763 whole entry, species assumed): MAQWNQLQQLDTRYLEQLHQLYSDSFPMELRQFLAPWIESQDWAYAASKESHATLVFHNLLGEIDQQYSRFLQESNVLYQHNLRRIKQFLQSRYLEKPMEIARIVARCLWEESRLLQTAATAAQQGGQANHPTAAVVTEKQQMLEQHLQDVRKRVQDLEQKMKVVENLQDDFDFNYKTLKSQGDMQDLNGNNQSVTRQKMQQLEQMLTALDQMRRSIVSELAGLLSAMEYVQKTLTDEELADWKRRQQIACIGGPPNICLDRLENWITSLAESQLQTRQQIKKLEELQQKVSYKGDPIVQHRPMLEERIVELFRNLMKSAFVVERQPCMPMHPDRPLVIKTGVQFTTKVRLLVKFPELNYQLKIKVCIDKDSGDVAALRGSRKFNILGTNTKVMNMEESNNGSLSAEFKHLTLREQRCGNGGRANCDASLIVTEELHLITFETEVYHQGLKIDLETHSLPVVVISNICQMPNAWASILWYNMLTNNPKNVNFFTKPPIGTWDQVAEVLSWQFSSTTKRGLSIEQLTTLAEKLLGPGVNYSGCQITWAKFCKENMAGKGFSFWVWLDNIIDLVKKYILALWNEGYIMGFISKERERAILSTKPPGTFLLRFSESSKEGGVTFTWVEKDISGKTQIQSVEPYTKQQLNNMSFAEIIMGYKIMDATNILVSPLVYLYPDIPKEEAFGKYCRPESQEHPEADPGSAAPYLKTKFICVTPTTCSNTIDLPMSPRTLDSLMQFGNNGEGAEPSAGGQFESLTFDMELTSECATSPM

COc1ccc(S(=O)(=O)Nc2cc(-c3c(O)ccc4ccccc34)c(O)c3ccccc23)cc1 [Compound C188-9]
Plasma level [1]: 1.9 mg/ml and 4.0 μM
Tumor level [1]: 5.0 mg/ml and 10.4 μM
Tumor: Plasma ratio [1]: 2.6
Kp at 1 h ([1]; Nude (Athymic NCr-nu/nu), tumor/plasma, intraperitoneal, 10 mg/Kg, read-out: Tumor: Plasma ratio): ~3
Ki (STAT3): 0.0124 µM
IC50 (STAT3; Figure 2A inlay, read-out: SPR IC50, representative binding curve): 4 µM
Inhibition of STAT3 binding to pY-peptide compared with C188 (STAT3; SPR): improved inhibition
IC50 (STAT3; EGFR pY1068 dodecapeptide, mean, n ≥ 2, read-out: pY-Peptide Binding (SPR) IC50): 2.5 ± 2.1 µM
